Laboratory results: PubChem BioAssay (NCI)
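Exposure lasted 48 hours, with cells grown in 96-well plates and compounds tested at five concentrations. GI50 marks 50% less growth. TGI marks complete inhibition of growth.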

Tests used:
Assay in all cases: inhibition of tumour cell growth, NCI panel, 48 h
COLO 205 colon = tested on: COLO 205 colon
LOX IMVI melanoma = tested on: LOX IMVI melanoma
SW-620 colon = tested on: SW-620 colon
SF-268 CNS = tested on: SF-268 CNS
MDA-MB-231 breast = tested on: MDA-MB-231 breast
NCI-H226 lung = tested on: NCI-H226 lung
NCI-H460 lung = tested on: NCI-H460 lung
HCT-15 colon = tested on: HCT-15 colon
SK-MEL-28 melanoma = tested on: SK-MEL-28 melanoma
M14 melanoma = tested on: M14 melanoma
ACHN renal = tested on: ACHN renal
BT-549 breast = tested on: BT-549 breast
HCT-116 colon = tested on: HCT-116 colon
CAKI-1 renal = tested on: CAKI-1 renal
EKVX NSCLC = tested on: EKVX NSCLC
MALME-3M melanoma = tested on: MALME-3M melanoma
OVCAR-8 ovarian = tested on: OVCAR-8 ovarian
SK-MEL-5 melanoma = tested on: SK-MEL-5 melanoma
OVCAR-3 ovarian = tested on: OVCAR-3 ovarian
K-562 leukemia = tested on: K-562 leukemia
UACC-62 melanoma = tested on: UACC-62 melanoma
SN12C renal = tested on: SN12C renal
OVCAR-5 ovarian = tested on: OVCAR-5 ovarian
PC-3 prostate = tested on: PC-3 prostate
UO-31 renal = tested on: UO-31 renal
A498 renal = tested on: A498 renal
T-47D breast = tested on: T-47D breast
UACC-257 melanoma = tested on: UACC-257 melanoma
KM12 colon = tested on: KM12 colon
MCF7 breast = tested on: MCF7 breast
RPMI-8226 leukemia = tested on: RPMI-8226 leukemia
MDA-MB-435 = tested on: MDA-MB-435
HT29 colon = tested on: HT29 colon
786-0 renal = tested on: 786-0 renal
SF-295 CNS = tested on: SF-295 CNS
SNB-75 CNS = tested on: SNB-75 CNS
HOP-92 NSCLC = tested on: HOP-92 NSCLC
DU-145 prostate = tested on: DU-145 prostate
NCI-H522 lung = tested on: NCI-H522 lung
HCC-2998 colon = tested on: HCC-2998 colon
OVCAR-4 ovarian = tested on: OVCAR-4 ovarian
HS 578T breast = tested on: HS 578T breast
HL-60(TB) leukemia = tested on: HL-60(TB) leukemia
IGROV1 ovarian = tested on: IGROV1 ovarian
SR leukemia = tested on: SR leukemia
CCRF-CEM leukemia = tested on: CCRF-CEM leukemia
A549 NSCLC = tested on: A549 NSCLC
U251 CNS = tested on: U251 CNS
SF-539 CNS = tested on: SF-539 CNS
SK-MEL-2 melanoma = tested on: SK-MEL-2 melanoma
SNB-19 CNS = tested on: SNB-19 CNS
RXF 393 renal = tested on: RXF 393 renal
NCI-H23 lung = tested on: NCI-H23 lung
TK-10 renal = tested on: TK-10 renal
HOP-62 NSCLC = tested on: HOP-62 NSCLC
NCI/ADR-RES ovarian = tested on: NCI/ADR-RES ovarian
SK-OV-3 ovarian = tested on: SK-OV-3 ovarian

CCCCCCCCCCCCCCCCNC(=O)OC(C)C
GI50 (COLO 205 colon): 1.95 µM
TGI (COLO 205 colon): 3.61 µM
GI50 (LOX IMVI melanoma): 1.61 µM
TGI (LOX IMVI melanoma): 2.97 µM
GI50 (SW-620 colon): 1.46 µM
TGI (SW-620 colon): 2.87 µM
GI50 (SF-268 CNS): 2.73 µM
TGI (SF-268 CNS): 8 µM
GI50 (MDA-MB-231 breast): 2.37 µM
TGI (MDA-MB-231 breast): 5.41 µM
GI50 (NCI-H226 lung): 3.56 µM
TGI (NCI-H226 lung): 14.1 µM
GI50 (NCI-H460 lung): 1.11 µM
TGI (NCI-H460 lung): 2.46 µM
GI50 (HCT-15 colon): 2.35 µM
TGI (HCT-15 colon): 6.79 µM
GI50 (SK-MEL-28 melanoma): 13.5 µM
TGI (SK-MEL-28 melanoma): 27.1 µM
GI50 (M14 melanoma): 3.5 µM
TGI (M14 melanoma): 14.4 µM
GI50 (ACHN renal): 2.16 µM
TGI (ACHN renal): 5.24 µM
GI50 (BT-549 breast): 21.9 µM
TGI (BT-549 breast): 55.9 µM
GI50 (HCT-116 colon): 1.96 µM
TGI (HCT-116 colon): 4.17 µM
GI50 (CAKI-1 renal): 2.03 µM
TGI (CAKI-1 renal): 4.75 µM
GI50 (EKVX NSCLC): 2.35 µM
TGI (EKVX NSCLC): 6.44 µM
GI50 (MALME-3M melanoma): 2.89 µM
TGI (MALME-3M melanoma): 9.24 µM
GI50 (OVCAR-8 ovarian): 3.82 µM
TGI (OVCAR-8 ovarian): 18 µM
GI50 (SK-MEL-5 melanoma): 12.3 µM
TGI (SK-MEL-5 melanoma): 27.8 µM
GI50 (OVCAR-3 ovarian): 1.99 µM
TGI (OVCAR-3 ovarian): 3.89 µM
GI50 (K-562 leukemia): 2.14 µM
TGI (K-562 leukemia): 5.86 µM
GI50 (UACC-62 melanoma): 6.04 µM
TGI (UACC-62 melanoma): 19 µM
GI50 (SN12C renal): 4.53 µM
TGI (SN12C renal): 17 µM
GI50 (OVCAR-5 ovarian): 2.81 µM
TGI (OVCAR-5 ovarian): 8.39 µM
GI50 (PC-3 prostate): 2.45 µM
TGI (PC-3 prostate): 7.53 µM
GI50 (UO-31 renal): 1.54 µM
TGI (UO-31 renal): 3.38 µM
GI50 (A498 renal): 0.37 µM
TGI (A498 renal): 5.95 µM
GI50 (T-47D breast): 3.79 µM
TGI (T-47D breast): 12.6 µM
GI50 (UACC-257 melanoma): 13.2 µM
TGI (UACC-257 melanoma): 28.8 µM
GI50 (KM12 colon): 1.83 µM
TGI (KM12 colon): 3.5 µM
GI50 (MCF7 breast): 1.88 µM
TGI (MCF7 breast): 3.53 µM
GI50 (RPMI-8226 leukemia): 5.22 µM
TGI (RPMI-8226 leukemia): 40.8 µM
GI50 (MDA-MB-435): 2.55 µM
TGI (MDA-MB-435): 6.93 µM
GI50 (HT29 colon): 1.65 µM
TGI (HT29 colon): 3.12 µM
GI50 (786-0 renal): 9.38 µM
TGI (786-0 renal): 29.4 µM
GI50 (SF-295 CNS): 2.11 µM
TGI (SF-295 CNS): 5.81 µM
GI50 (SNB-75 CNS): 5.74 µM
TGI (SNB-75 CNS): 18.1 µM
GI50 (HOP-92 NSCLC): 3.02 µM
TGI (HOP-92 NSCLC): 13.7 µM
GI50 (DU-145 prostate): 1.81 µM
TGI (DU-145 prostate): 3.41 µM
GI50 (NCI-H522 lung): 2.01 µM
TGI (NCI-H522 lung): 4.62 µM
GI50 (HCC-2998 colon): 2.56 µM
TGI (HCC-2998 colon): 6.22 µM
GI50 (OVCAR-4 ovarian): 2.01 µM
TGI (OVCAR-4 ovarian): 4.37 µM
GI50 (HS 578T breast): 2.19 µM
TGI (HS 578T breast): 16.5 µM
GI50 (HL-60(TB) leukemia): 2.01 µM
TGI (HL-60(TB) leukemia): 5.56 µM
GI50 (IGROV1 ovarian): 2.27 µM
TGI (IGROV1 ovarian): 5 µM
GI50 (SR leukemia): 1.56 µM
TGI (SR leukemia): 5.01 µM
GI50 (CCRF-CEM leukemia): 2.31 µM
TGI (CCRF-CEM leukemia): 6.2 µM
GI50 (A549 NSCLC): 1.95 µM
TGI (A549 NSCLC): 3.82 µM
GI50 (U251 CNS): 1.96 µM
TGI (U251 CNS): 3.67 µM
GI50 (SF-539 CNS): 5.15 µM
TGI (SF-539 CNS): 12.7 µM
GI50 (SK-MEL-2 melanoma): 2.43 µM
TGI (SK-MEL-2 melanoma): 6.15 µM
GI50 (SNB-19 CNS): 5.48 µM
TGI (SNB-19 CNS): 16.3 µM
GI50 (RXF 393 renal): 8.07 µM
TGI (RXF 393 renal): 26.6 µM
GI50 (NCI-H23 lung): 3.04 µM
TGI (NCI-H23 lung): 10.3 µM
GI50 (TK-10 renal): 2.09 µM
TGI (TK-10 renal): 4.48 µM
GI50 (HOP-62 NSCLC): 5.11 µM
TGI (HOP-62 NSCLC): 11.2 µM
GI50 (NCI/ADR-RES ovarian): 3.34 µM
TGI (NCI/ADR-RES ovarian): 13.6 µM
GI50 (SK-OV-3 ovarian): 5.7 µM
TGI (SK-OV-3 ovarian): 14.3 µM
